Results published in patent US7803801B2, “Aminopyridine compounds having Syk inhibitory activity” (Japan Tobacco, Inc., priority 2005, dated 2010).
Structures can show the parent of a compound that is named as a salt. Where two headings read alike, the source gives them in different places.

What was measured:
[1] = target: GST-Syk Full Protein (human) (Homo sapiens, UniProt P43405); test: Syk kinase inhibition test (HTRF method); assay type: biochemical
Method in brief: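 Human GST-Syk full-length (6.4 nM) phosphorylated biotin-EDPDYEWPSA-NH2 (250 nM) with 100 μM ATP in HEPES pH 7.0/MgCl2 buffer, 2% DMSO, 30 min at room temperature. EDTA stop, then HTRF detection (streptavidin-XL665, Eu anti-phosphotyrosine) after 1 h; 665/620 ratio read.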

[2] = test system: cultured human mast cells; test: Degranulation inhibition test using cultured human mast cells (IgE cross-linking, β-Hexosaminidase release); assay type: cell-based; details: Mast cell, cultured human mast cells, read-out: human degranulation ave. IC50
Method in brief: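 CD34+ cord-blood cells cultured ≥8 weeks with SCF/IL-6/IL-3; FcεRI primed 5 days with rhIL-4 (1 ng/mL) and hIgE (0.5 μg/mL). Compound (0.1% DMSO) preincubated 10 min at 37 °C, then anti-IgE (final 10 μg/mL) 30 min; released β-hexosaminidase read at 405 nm versus total lysate, IC50 (M).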

[3] = HTRF, 100 μM ATP, 30 min room temperature, average, read-out: sykHTRF ave IC50
[4] = anti-hIgE stimulation, β-Hexosaminidase index, average
[5] = Tables 2-x, thiophene compounds B, read-out: sykHTRK ave IC50
[6] = Tables 2-x, thiophene compounds B
[7] = Tables 1-x, compounds A, read-out: sykHTRF ave IC50

Row | SMILES | IC50 [1, 3] | IC50 [2, 4] | IC50 [1, 7] | IC50 ([2]; Tables 1-x, compounds A) | other results
1 | Cc1ccnc(Nc2cccc(-c3cnc([C@H]4CC[C@H](C(=O)N5C[C@@H](O)[C@@H](O)C5)CC4)s3)n2)c1 [Compound A-174, ((3R,4S)-3,4-dihydroxypyrrolidin-1-yl)-(trans-4-{5-[6-(4-methylpyridin-2-ylamino)pyridin-2-yl]thiazol-2-yl}cyclohexyl)methanone] | < 100 nM | 100 to 1000 nM | – | – | –
2 | Cc1ccnc(Nc2cccc(-c3cnc(CNCc4ccc(C(=O)O)cc4)s3)n2)c1 [Compound A-288] | 100 to 1000 nM | > 1000 nM | – | – | –
3 | C/C(=N\OCCO)c1ccc(-c2cccc(Nc3cc(C)ccn3)n2)s1 [Compound B-38, 1-{5-[6-(4-methylpyridin-2-ylamino)pyridin-2-yl]thiophen-2-yl}ethanone O-(2-hydroxyethyl)oxime] | – | – | – | – | IC50 [1, 5]: < 100 nM; IC50 [2, 6]: 100 to 1000 nM
4 | CC(=NO)c1ncc(-c2cccc(Nc3cc(C)ccn3)n2)s1 [Compound A-30, 1-{5-[6-(4-methylpyridin-2-ylamino)pyridin-2-yl]thiazol-2-yl}ethanone oxime] | < 100 nM | 100 to 1000 nM | – | – | –
5 | Cc1ccnc(Nc2cccc(-c3cnc(C4CCC(=O)CC4)s3)n2)c1 [Compound A-60] | 100 to 1000 nM | 100 to 1000 nM | – | – | –
6 | Cc1ccnc(Nc2cccc(-c3cnc(Cc4ccc(CO)cc4)s3)n2)c1 [Compound A-243, (4-{5-[6-(4-methylpyridin-2-ylamino)pyridin-2-yl]thiazol-2-ylmethyl}phenyl)methanol] | < 100 nM | 100 to 1000 nM | – | – | –
7 | Cc1ccnc(Nc2cccc(-c3ccc(/C(N)=N/O)s3)n2)c1 [Compound B-60, N-hydroxy-5-[6-(4-methylpyridin-2-ylamino)pyridin-2-yl]thiophene-2-carboxyamidine] | – | – | – | – | IC50 [1, 5]: < 100 nM; IC50 [2, 6]: 100 to 1000 nM
8 | CNC(=O)C1CCCN(c2ncc(-c3cccc(Nc4cc(C)ccn4)n3)s2)C1 (stereo not shown) [Compound A-477, N-methyl-1-{5-[6-(4-methylpyridin-2-ylamino)pyridin-2-yl]thiazol-2-yl}piperidine-3-carboxamide] | – | – | < 100 nM | 100 to 1000 nM | –
9 | Cc1ccnc(Nc2cccc(-c3ccc(C(=O)NCC(=O)O)s3)n2)c1 [Compound B-99] | – | – | – | – | IC50 [1, 5]: 100 to 1000 nM; IC50 [2, 6]: > 1000 nM
10 | Cc1ccnc(Nc2cccc(-c3cnc(CCC4CCN(C(=O)C5CCC(=O)CC5)CC4)s3)n2)c1 [Compound A-293] | 100 to 1000 nM | > 1000 nM | – | – | –
11 | CC(=O)O[C@@H](C)c1ncc(-c2cccc(Nc3cc(C)ccn3)n2)s1 [Compound A-25, acetic acid(S)-1-{5-[6-(4-methylpyridin-2-ylamino)pyridin-2-yl]thiazol-2-yl}ethyl ester] | < 100 nM | 100 to 1000 nM | – | – | –
12 | CN(Cc1ccc(C(=O)O)cc1)c1ncc(-c2cccc(Nc3cc(C4(C)OCCO4)ccn3)n2)s1 [Compound A-596, 4-{[N-methyl-N-(5-{6-[4-(2-methyl-[1,3]dioxolan-2-yl)pyridin-2-ylamino]pyridin-2-yl}thiazol-2-yl)amino]methyl}benzoic acid] | – | – | < 100 nM | 100 to 1000 nM | –
13 | Cc1ccnc(Nc2cccc(-c3ccc(CN(C)C)s3)n2)c1 [Compound B-14] | – | – | – | – | IC50 [1, 5]: 100 to 1000 nM; IC50 [2, 6]: 100 to 1000 nM
14 | Cc1ccnc(Nc2cccc(-c3cnc(CCC4CCN(C(=O)C5CCNCC5)CC4)s3)n2)c1 [Compound A-295, [4-(2-{5-[6-(4-methylpyridin-2-ylamino)pyridin-2-yl]thiazol-2-yl}ethyl)piperidin-1-yl]-(piperidin-4-yl)metanone] | < 100 nM | > 1000 nM | – | – | –
15 | COC(=O)c1cc(Br)nc(Nc2cccc(-c3ccc(C(C)=O)s3)n2)c1 [Compound B-44] | – | – | – | – | IC50 [1, 5]: > 1000 nM; IC50 [2, 6]: > 1000 nM
16 | COC1CCN(c2ncc(-c3cccc(Nc4cc(C)ccn4)n3)s2)CC1 [Compound A-431, N-{6-[2-(4-methoxypiperidin-1-yl)thiazol-5-yl]pyridin-2-yl}-N-(4-methylpyridin-2-yl)amine] | – | – | < 100 nM | 100 to 1000 nM | –
17 | Cc1ccnc(Nc2cccc(-c3cnc(N4CCCC(COCC(=O)O)C4)s3)n2)c1 (stereo not shown) [Compound A-497, (1-{5-[6-(4-methylpyridin-2-ylamino)pyridin-2-yl]thiazol-2-yl}piperidin-3-ylmethoxy)acetic acid dihydrochloride] | – | – | < 100 nM | > 1000 nM | –
18 | Cc1ccnc(Nc2cccc(-c3cnc([C@@H](O)C(C)C)s3)n2)c1 [Compound A-82, (S)-2-methyl-1-{5-[6-(4-methylpyridin-2-ylamino)pyridin-2-yl]thiazol-2-yl}propan-1-ol] | < 100 nM | 100 to 1000 nM | – | – | –
19 | CC(=O)Nc1ccc(-c2cccc(Nc3cc(C)ccn3)n2)s1 [Compound B-10, N-{5-[6-(4-methylpyridin-2-ylamino)pyridin-2-yl]thiophen-2-yl}acetamide] | – | – | – | – | IC50 [1, 5]: < 100 nM; IC50 [2, 6]: 100 to 1000 nM

Row | SMILES | IC50 [1, 3] | IC50 [2, 4] | IC50 [1, 7] | IC50 ([2]; Tables 1-x, compounds A) | other results
20 | CC(=O)N1CCC(Cc2ncc(-c3cccc(Nc4cc(C)ccn4)n3)s2)CC1 [Compound A-328] | 100 to 1000 nM | 100 to 1000 nM | – | – | –
21 | Cc1ccnc(Nc2cccc(-c3cnc(COc4ccc(C(=O)O)cc4)s3)n2)c1 [Compound A-605, 4-{5-[6-(4-methylpyridin-2-ylamino)pyridin-2-yl]thiazol-2-ylmethoxy}benzoic acid] | – | – | < 100 nM | > 1000 nM | –
22 | CNC(=O)C1CCN(c2ncc(-c3cccc(Nc4cc(OC)ccn4)n3)s2)CC1 [Compound A-436, N-methyl-1-{5-[6-(4-methoxypyridin-2-ylamino)pyridin-2-yl]thiazol-2-yl}piperidine-4-carboxamide] | – | – | < 100 nM | 100 to 1000 nM | –
23 | Cc1ccnc(Nc2cccc(-c3cnc([C@H]4CC[C@H](C(=O)N5CCC[C@H]5CO)CC4)s3)n2)c1 [Compound A-285] | 100 to 1000 nM | 100 to 1000 nM | – | – | –
24 | Cc1ccnc(Nc2cccc(-c3cnc(N4CC[C@@H](O)C4)s3)n2)c1 [Compound A-479, (R)-1-{5-[6-(4-methylpyridin-2-ylamino)pyridin-2-yl]thiazol-2-yl}pyrrolidin-3-ol] | – | – | < 100 nM | 100 to 1000 nM | –
25 | Cc1ccnc(Nc2cccc(-c3cnc(N(C)Cc4ccc(C(=O)O)cc4)s3)n2)c1 [Compound A-574, 4-[(N-methyl-N-{5-[6-(4-methylpyridin-2-ylamino)pyridin-2-yl]thiazol-2-yl}amino)methyl]benzoic acid dihydrochloride] | – | – | < 100 nM | 100 to 1000 nM | –
26 | COc1ccnc(Nc2cccc(-c3cnc([C@H](C)NC(C)=O)s3)n2)c1 [Compound A-77] | 100 to 1000 nM | 100 to 1000 nM | – | – | –
27 | COC(=O)N(C)Cc1ncc(-c2cccc(Nc3cc(C)ccn3)n2)s1 [Compound A-356] | 100 to 1000 nM | 100 to 1000 nM | – | – | –
28 | Cc1ccnc(Nc2cccc(-c3ccc(-c4nnn[nH]4)s3)n2)c1 [Compound B-95] | – | – | – | – | IC50 [1, 5]: 100 to 1000 nM; IC50 [2, 6]: > 1000 nM
29 | Cc1ccnc(Nc2cccc(-c3cnc(CC4CCC(C(=O)O)CC4)s3)n2)c1 (stereo not shown) [Compound A-249] | 100 to 1000 nM | 100 to 1000 nM | – | – | –
30 | Cc1ccnc(Nc2cccc(-c3cnc(CNS(C)(=O)=O)s3)n2)c1 [Compound A-200, N-{5-[6-(4-methylpyridin-2-ylamino)pyridin-2-yl]thiazol-2-ylmethyl}methanesulfonamide] | < 100 nM | 100 to 1000 nM | – | – | –
31 | Cc1ccnc(Nc2cccc(-c3cnc(CCC4CCN(S(C)(=O)=O)CC4)s3)n2)c1 [Compound A-260, N-(6-{2-[2-(1-methanesulfonylpiperidin-4-yl)ethyl]thiazol-5-yl}pyridin-2-yl)-N-(4-methylpyridin-2-yl)amine] | < 100 nM | 100 to 1000 nM | – | – | –
32 | CNC(=O)[C@H]1CC[C@H](c2ncc(-c3cccc(Nc4cc(C)ccn4)n3)s2)CC1 [Compound A-336, N-methyl-trans-4-{5-[6-(4-methylpyridin-2-ylamino)pyridin-2-yl]thiazol-2-yl}cyclohexanecarboxamide] | < 100 nM | 100 to 1000 nM | – | – | –
33 | CN[C@@H](Cc1ccc(O)cc1)c1ncc(-c2cccc(Nc3cc(C)ccn3)n2)s1 [Compound A-384] | – | – | 100 to 1000 nM | 100 to 1000 nM | –
34 | Cc1ccnc(Nc2cccc(-c3cnc(COC(=O)NCC4(O)CCCCC4)s3)n2)c1 [Compound A-195] | 100 to 1000 nM | 100 to 1000 nM | – | – | –
35 | CC(=O)N1CCC(Nc2ncc(-c3cccc(Nc4cc(C)ccn4)n3)s2)CC1 [Compound A-514, 1-(4-{5-[6-(4-methylpyridin-2-ylamino)pyridin-2-yl]thiazol-2-ylamino}piperidin-1-yl)ethanone] | – | – | < 100 nM | 100 to 1000 nM | –
36 | Cc1ccnc(Nc2cccc(-c3cnc(N(C)CC(N)=O)s3)n2)c1 [Compound A-556, 2-(N-methyl-N-{5-[6-(4-methylpyridin-2-ylamino)pyridin-2-yl]thiazol-2-yl}amino)acetamide] | – | – | < 100 nM | < 100 nM | –
37 | Cc1ccnc(Nc2cccc(-c3cnc([C@H]4CC[C@H](C(=O)N5CC[C@@H](O)C5)CC4)s3)n2)c1 [Compound A-241, ((R)-3-hydroxypyrrolidin-1-yl)-(trans-4-{5-[6-(4-methylpyridin-2-ylamino)pyridin-2-yl]thiazol-2-yl}cyclohexyl)metanone] | < 100 nM | > 1000 nM | – | – | –
38 | Cc1ccnc(Nc2cccc(-c3cnc(N4CCc5c(cccc5C(=O)O)C4)s3)n2)c1 [Compound A-582, 2-{5-[6-(4-methylpyridin-2-ylamino)pyridin-2-yl]thiazol-2-yl}-1,2,3,4-tetrahydroisoquinoline-5-carboxylic acid] | – | – | < 100 nM | > 1000 nM | –
